From patent US9296745B2, “Diacylglycerol acyltransferase 2 inhibitors” (Pfizer Inc., priority 2012, dated 2016) come the findings set out here.

Structures can show the parent of a compound that is named as a salt.

Human DGAT2 (hDGAT2), sequence (Q96PD7 whole entry): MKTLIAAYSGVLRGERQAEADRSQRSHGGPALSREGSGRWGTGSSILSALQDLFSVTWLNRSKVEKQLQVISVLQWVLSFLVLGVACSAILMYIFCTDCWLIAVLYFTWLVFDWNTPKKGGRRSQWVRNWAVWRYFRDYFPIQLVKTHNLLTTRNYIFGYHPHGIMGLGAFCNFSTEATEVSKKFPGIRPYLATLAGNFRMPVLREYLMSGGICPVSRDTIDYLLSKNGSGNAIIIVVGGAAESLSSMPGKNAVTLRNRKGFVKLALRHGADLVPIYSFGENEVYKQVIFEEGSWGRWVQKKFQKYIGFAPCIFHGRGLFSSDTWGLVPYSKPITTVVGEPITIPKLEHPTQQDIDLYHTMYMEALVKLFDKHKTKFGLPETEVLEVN

For one experiment, the target named is Human DGAT2 (hDGAT2) (Homo sapiens (Human), UniProt Q96PD7). Description: In vitro DGAT2 assay, IC50 determination with hDGAT2 membrane fraction. Format: biochemical. The following applies: geometric mean; background for complete inhibition of DGAT2 obtained with 50 μM (1R,2R)-2-({3′-Fluoro-4′-[(6-fluoro-1,3-benzothiazol-2-yl)amino]-1,1′-biphenyl-4-yl}carbonyl)cyclopentanecarboxylic acid; hydrochloride; read-out: DGAT2 IC50. The method in brief:
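CHAPS-solubilized membrane fraction of FLAG-tagged hDGAT2 from baculovirus-infected SF9 cells (0.01 mg/mL) in 100 mM Hepes-NaOH pH 7.4, 20 mM MgCl2, 200 nM methyl arachidonyl fluorophosphonate; compounds pre-incubated 20 min with 0.04% BSA. Reaction 40 min at room temperature, stopped with H3PO4. [^14C]tridecanoylglycerol in organic phase counted; 11-point geometric mean IC50.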
On to `C[C@@H](c1nc2ccc(N3CCC[C@@H](C(=O)N4CCCC4)C3)nc2[nH]1)n1cc(Cl)cn1` [Example 196-B, ((R)-1-(2-((S)-1-(4-Chloro-1H-pyrazol-1-yl)ethyl)-3H-imidazo[4,5-b]pyridin-5-yl)piperidin-3-yl)(pyrrolidin-1-yl)methanone hydrochloride], for which the IC50 (as a rule, the concentration that gives 50% inhibition) came to 38.5 nM.

Still in this experiment, the particulars now being: geometric mean; background for complete inhibition of DGAT2 obtained with 50 μM (1R,2R)-2-({3′-Fluoro-4′-[(6-fluoro-1,3-benzothiazol-2-yl)amino]-1,1′-biphenyl-4-yl}carbonyl)cyclopentanecarboxylic acid; read-out: DGAT2 IC50.
`O=C([C@@H]1CCCN(c2ncc3nc(-c4ccnc(C5CC5)n4)[nH]c3n2)C1)N1CCCC1` [Example 159, (R)-(1-(8-(2-Cyclopropylpyrimidin-4-yl)-9H-purin-2-yl)piperidin-3-yl)(pyrrolidin-1-yl)methanone]: the concentration for half-maximal inhibition (IC50) was 28.2 nM. For the molecule `O=C([C@@H]1CCCN(c2ccc3nc(C4(c5ccncc5)CC4)[nH]c3n2)C1)N1CCCC1` [Example 161, (R)-(1-(2-(1-(Pyridin-4-yl)cyclopropyl)-3H-imidazo[4,5-b]pyridin-5-yl)piperidin-3-yl)(pyrrolidin-1-yl)methanone], the IC50 came out at 218 nM.

Take `Cc1cc(N2CCC[C@@H](C(=O)N3CCCC3)C2)nc2[nH]c(-c3ccnc(C4CC4)n3)nc12` [Example 162, (R)-(1-(2-(2-Cyclopropylpyrimidin-4-yl)-7-methyl-3H-imidazo[4,5-b]pyridin-5-yl)piperidin-3-yl)(pyrrolidin-1-yl)methanone]: the half-inhibitory concentration (IC50) worked out at 434 nM. On the same count and under the same terms, then `O=C([C@@H]1CCCN(c2ccc3nc(-c4cccc(-c5nnn[nH]5)c4)[nH]c3n2)C1)N1CCCC1` [Example 163, (R)-(1-(2-(3-(2H-Tetrazol-5-yl)phenyl)-3H-imidazo[4,5-b]pyridin-5-yl)piperidin-3-yl)(pyrrolidin-1-yl)methanone], with 3400 nM; and `CN(C)C(=O)[C@H]1CN(c2ccc3nc(-c4ccnc(C5CC5)n4)[nH]c3n2)CC(F)(F)C1` [Example 164, (R)-1-(2-(2-Cyclopropylpyrimidin-4-yl)-3H-imidazo[4,5-b]pyridin-5-yl)-5,5-difluoro-N,N-dimethylpiperidine-3-carboxamide], with 2800 nM; and `CN(C)C(=O)[C@@H]1CN(c2ccc3nc(-c4ccnc(C5CC5)n4)[nH]c3n2)CC(F)(F)C1` [Example 165, (S)-1-(2-(2-cyclopropylpyrimidin-4-yl)-3H-imidazo[4,5-b]pyridin-5-yl)-5,5-difluoro-N,N-dimethylpiperidine-3-carboxamide], with 16500 nM. With `O=C([C@@H]1CCCN(c2ccc3nc(C(F)(F)c4ccccc4)[nH]c3n2)C1)N1CCCC1` [Example 166, (R)-(1-(2-(Difluoro(phenyl)methyl)-3H-imidazo[4,5-b]pyridin-5-yl)piperidin-3-yl)(pyrrolidin-1-yl)methanone], the half-maximal inhibitory concentration (IC50) stood at 2280 nM. On the same count and under the same terms, then `c1cc(-c2nc3ccc(N4CCC[C@H](c5nnc6n5CCC6)C4)nc3[nH]2)nc(C2CC2)n1` [Example 168, (S)-2-(2-cyclopropylpyrimidin-4-yl)-5-(3-(6,7-dihydro-5H-pyrrolo[2,1-c][1,2,4]triazol-3-yl)piperidin-1-yl)-3H-imidazo[4,5-b]pyridine], with 1390 nM; and `c1cc(-c2nc3ccc(N4CCC[C@H](c5nnc6n5CCC6)C4)nc3[nH]2)nc(C2CC2)c1` [Example 171, (S)-2-(6-cyclopropylpyridin-2-yl)-5-(3-(6,7-dihydro-5H-pyrrolo[2,1-c][1,2,4]triazol-3-yl)piperidin-1-yl)-3H-imidazo[4,5-b]pyridine], with 161 nM; and `NC(=O)c1cccc(-c2nc3ccc(N4CCC[C@@H](C(=O)N5CCCC5)C4)nc3[nH]2)n1` [Example 172, (R)-6-(5-(3-(Pyrrolidine-1-carbonyl)piperidin-1-yl)-3H-imidazo[4,5-b]pyridin-2-yl)picolinamide], with 83 nM. Same read-out and setting: then `CN(C)C(=O)c1cccc(-c2nc3ccc(N4CCC[C@@H](C(=O)N5CCCC5)C4)nc3[nH]2)n1` [Example 173, (R)—N,N-Dimethyl-6-(5-(3-(pyrrolidine-1-carbonyl)piperidin-1-yl)-3H-imidazo[4,5-b]pyridin-2-yl)picolinamide], with 1250 nM; and `O=C([C@@H]1CCCN(c2ccc3nc(-c4ccnc(C5CC5)n4)[nH]c3n2)C1)N1C[C@H]2C[C@@H]1CO2` [Example 174, (1R,4R)-2-Oxa-5-azabicyclo[2.2.1]heptan-5-yl((R)-1-(2-(2-cyclopropylpyrimidin-4-yl)-3H-imidazo[4,5-b]pyridin-5-yl)piperidin-3-yl)methanone], with 1170 nM; and `O=C([C@@H]1CCCN(c2ccc3nc(-c4ccnc(C5CC5)n4)[nH]c3n2)C1)N1CC(F)(F)C1` [Example 176, (R)-(1-(2-(2-Cyclopropylpyrimidin-4-yl)-3H-imidazo[4,5-b]pyridin-5-yl)piperidin-3-yl)(3,3-difluoroazetidin-1-yl)methanone], with 73.4 nM. In the case of `C[C@H]1CO[C@@H](c2ccccn2)CN1c1ccc2nc(-c3cccc(Cl)c3)[nH]c2n1` [Example 177, (2R,5S)-4-(2-(3-Chlorophenyl)-3H-imidazo[4,5-b]pyridin-5-yl)-5-methyl-2-(pyridin-2-yl)morpholine], the concentration for half-maximal inhibition (IC50) worked out at 953 nM. The same measure, in the same setting: then `CS(=O)(=O)c1cncc(-c2nc3ccc(N4CCC[C@@H](C(=O)N5CCCC5)C4)nc3[nH]2)c1` [Example 179, (R)-(1-(2-(5-(Methylsulfonyl)pyridin-3-yl)-3H-imidazo[4,5-b]pyridin-5-yl)piperidin-3-yl)(pyrrolidin-1-yl)methanone], with 512 nM. On to `C[C@@H]1CCN(c2ccc3nc(-c4cccc(OC(F)F)c4)[nH]c3n2)C[C@@H]1C(=O)N(C)C` [Example 180, (3R,4R)-1-(2-(3-(Difluoromethoxy)phenyl)-3H-imidazo[4,5-b]pyridin-5-yl)-N,N,4-trimethylpiperidine-3-carboxamide], for which the IC50 stood at 434 nM. Consider `O=C([C@@H]1CCCN(c2ccc3nc(-c4cccc(C5CC5)n4)[nH]c3n2)C1)N1CCCC1` [Example 182, (R)-(1-(2-(6-Cyclopropylpyridin-2-yl)-3H-imidazo[4,5-b]pyridin-5-yl)piperidin-3-yl)(pyrrolidin-1-yl)methanone], for which the IC50 amounted to 6.03 nM. Still for that read-out and setting: then `O=C([C@@H]1CCCN(c2ccc3nc(-c4cncc(C5CC5)c4)[nH]c3n2)C1)N1CCCC1` [Example 183, (R)-(1-(2-(5-Cyclopropylpyridin-3-yl)-3H-imidazo[4,5-b]pyridin-5-yl)piperidin-3-yl)(pyrrolidin-1-yl)methanone], with 37.5 nM; and `O=C([C@@H]1CCCN(c2ccc3nc(-c4cccc(C5CC5)n4)[nH]c3n2)C1)N1CCC(F)(F)C1` [Example 184, (R)-(1-(2-(6-Cyclopropylpyridin-2-yl)-3H-imidazo[4,5-b]pyridin-5-yl)piperidin-3-yl)(3,3-difluoropyrrolidin-1-yl)methanone], with 15.2 nM; and `CCN(C)C(=O)[C@@H]1CCCN(c2ccc3nc(-c4ccnc(C5CC5)n4)[nH]c3n2)C1` [Example 185, (R)-1-(2-(2-Cyclopropylpyrimidin-4-yl)-3H-imidazo[4,5-b]pyridin-5-yl)-N-ethyl-N-methylpiperidine-3-carboxamide], with 231 nM. The same measure, in the same setting: then `O=C([C@H]1CN(c2ccc3nc(-c4cccc(C5CC5)n4)[nH]c3n2)CCO1)N1CCOCC1` [Example 186, (R)-(4-(2-(6-Cyclopropylpyridin-2-yl)-3H-imidazo[4,5-b]pyridin-5-yl)morpholin-2-yl)(morpholino)methanone], with 162 nM; and `O=C([C@@H]1CCCN(c2ncc3nc(-c4cccc(C(F)(F)F)n4)[nH]c3n2)C1)N1CCCC1` [Example 187, (R)-Pyrrolidin-1-yl(1-(8-(6-(trifluoromethyl)pyridin-2-yl)-9H-purin-2-yl)piperidin-3-yl)methanone], with 10.5 nM; and `CC(C)(c1nc2ccc(N3CCC[C@@H](C(=O)N4CCCC4)C3)nc2[nH]1)n1cc(Cl)cn1` [Example 188], with 31.4 nM. On the same count and under the same terms, then `CSc1cnn(C2(c3nc4ccc(N5CCC[C@@H](C(=O)N6CCCC6)C5)nc4[nH]3)CC2)c1` [Example 189, (R)-(1-(2-(1-(4-(Methylthio)-1H-pyrazol-1-yl)cyclopropyl)-3H-imidazo[4,5-b]pyridin-5-yl)piperidin-3-yl)(pyrrolidin-1-yl)methanone], with 34.1 nM; and `COc1cnn(C2(c3nc4ccc(N5CCC[C@@H](C(=O)N6CCCC6)C5)nc4[nH]3)CC2)c1` [Example 194, (R)-(1-(2-(1-(4-Methoxy-1H-pyrazol-1-yl)cyclopropyl)-3H-imidazo[4,5-b]pyridin-5-yl)piperidin-3-yl)(pyrrolidin-1-yl)methanone], with 101 nM; and `O=C([C@@H]1CCCN(c2ccc3nc(C4(c5coc(C6CC6)n5)CC4)[nH]c3n2)C1)N1CCCC1` [Example 195, (R)-(1-(2-(1-(2-cyclopropyloxazol-4-yl)cyclopropyl)-3H-imidazo[4,5-b]pyridin-5-yl)piperidin-3-yl)(pyrrolidin-1-yl)methanone], with 142 nM.

The same experiment, now with this note: read-out: DGAT2 IC50.
For `O=C([C@@H]1CCCN(c2ccc3nc(C4(c5ccc[n+]([O-])c5)CC4)[nH]c3n2)C1)N1CCCC1` [Example 160, (R)-3-(1-(5-(3-(Pyrrolidine-1-carbonyl)piperidin-1-yl)-3H-imidazo[4,5-b]pyridin-2-yl)cyclopropyl)pyridine 1-oxide], the half-inhibitory concentration (IC50) turned out to be 789 nM.

On to `C[C@H]1CCN(c2ccc3nc(-c4cccc(OC(F)F)c4)[nH]c3n2)C[C@H]1C(=O)N(C)C` [Example 181, (3S,4S)-1-(2-(3-(difluoromethoxy)phenyl)-3H-imidazo[4,5-b]pyridin-5-yl)-N,N,4-trimethylpiperidine-3-carboxamide], for which the IC50 came to 17400 nM.
